The values that follow are results of earlier work, collected in patent publication US7183094B2, “Bacterial mycothiol S-conjugate amidase family” (The Regents of the University of California, priority 1999, dated 2007).

This data set concerns M. smegmatis mutant blocked in mycothiol production. To be noted: Newton et al. (1999); cited from earlier work.

As to `CO[C@H]1/C=C/O[C@@]2(C)Oc3c(C)c(O)c4c(O)c(c(/C=N/N5CCN(C)CC5)c(O)c4c3C2=O)NC(=O)/C(C)=C\C=C\[C@H](C)[C@H](O)[C@@H](C)[C@@H](O)[C@@H](C)[C@H](OC(C)=O)[C@@H]1C` [rifampin], the “increased sensitivity of the mutant” value is listed as 20 fold.
